# Source: patent US10941157B2, “Pesticidal compositions and uses thereof” (Gilead Apollo, LLC, priority 2015, dated 2021)
# Where two headings read alike, the source gives them in different places.
# What was measured:
# Botrtyis cinerea (Bc) = assay: In vitro pathogen growth inhibition assay, Bc; format: cell-based; settings: 48 h
# In short: (§1)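 Spores in 17% V8 liquid medium, or 1.5 mm Rs mycelial plugs in ¼ PDB, incubated with compound; final concentration checked by OD600 for precipitation. OD readings at 24 and 48 h, blank-subtracted, plus visual ratings; value is concentration giving ≥90% growth inhibition.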
# [1] = tested on: Collectotrichum graminicola (Cg); assay: In vitro pathogen growth inhibition assay, Cg; format: cell-based; settings: 48 h
# In short: as §1
# Diplodia maydis (Dm) = assay: In vitro pathogen growth inhibition assay, Dm; format: cell-based; settings: Stenocarpella maydis, 48 h
# In short: (§2)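 Spores of Dm, Fv and Pc were diluted in 17% V8 liquid medium; Rs used 1.5 mm mycelial plugs in ¼ PDB. Compounds from 2.5 mg/ml DMSO stocks were combined with inoculum, growth was read by OD600 at 24 and 48 h with blank subtraction, and the reported value is the concentration giving ≥90% inhibition.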
# [2] = tested on: Fusarium moniliforme (Fm); assay: In vitro pathogen growth inhibition assay, Fm; format: cell-based; settings: Fusarium verticillioides
# In short: as §1
# [3] = tested on: Fusarium virguliforme (Fv); assay: In vitro pathogen growth inhibition assay, Fv; format: cell-based
# In short: as §2
# [4] = tested on: Phytophthora capsici (Pc); assay: In vitro pathogen growth inhibition assay, Pc; format: cell-based; settings: 48 h
# In short: as §2
# Rhizoctonia solani (Rs) = assay: In vitro pathogen growth inhibition assay, Rs (mycelial plugs); format: cell-based; settings: Rhizoctonia solani, 48 h, mycelial plugs
# In short: as §2
# Septoria tritici (St) = assay: In vitro pathogen growth inhibition assay, St; format: cell-based; settings: Zymoseptoria tritici, 48 h
# In short: as §1
# [5] = tested on: Saccharomyces cerevisiae (Sc); assay: Yeast growth inhibition assay; format: cell-based; settings: Saccharomyces cerevisiae, ≥75% inhibition, read-out: Compound Concentration (ppm) sufficient for ≥75% inhibition, Sc
# Procedure: Both tables list the concentration of each compound that was sufficient to ≥90% inhibition of growth for each of the fungal pathogens listed above. In addition, some of compounds were tested in a yeast growth inhibition assay for Saccharomyces cerevisiae (Sc). Table 2 lists the concentration of the tested compound that was sufficient to ≥75% inhibition of Saccharomyces cerevisiae (Sc).
# [6] = tested on: Blumeria graminis f. sp. hordei; assay: Foliar protection test for barley powdery mildew control; format: in vivo; settings: foliar spray on Hordeum vulgare cv. Perry, inoculated 24 hours after treatment, evaluated 7 days later
# In short: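 Six-day-old barley (cv. Perry) sprayed to wetness on both leaf sides; 24 h later inoculated by shaking spores from infected stock plants. Kept at 20 to 22° C, 70% relative humidity; mildew colonization assessed 7 days later.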
# Sphaerotheca fuliginea = assay: Foliar protection for cucumber powdery mildew control; format: in vivo; settings: foliar spray on Cucumis sativus cv. Straight Eight, inoculated 24 hours after treatment, evaluated 7 days later
# In short: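 Cucumber plants (cv. Straight Eight, 10 days old) sprayed to wetness on both leaf surfaces, then inoculated 24 h later by shaking sporulating stock plants over them. Held at 23–27 °C, 16 h light, 60% RH. Mildew colonization scored 7 days after inoculation, at compound concentrations of 10 ppm or lower.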
# [7] = tested on: Mycosphaerella graminicola (synthetic Septoria tritici); assay: Foliar protection test for wheat septoria leaf blotch control; format: in vivo; settings: foliar spray on Triticum aestivum cv. WinterHawk, inoculated 1 hour after treatment, evaluated 16 days later
# Fusarium graminearum = format: in vivo; settings: spray on flowering Triticum aestivum cv. Samson, inoculated 24 hours after treatment, evaluated 14 days later
# Puccinia triticina = assay: Foliar protection test for wheat leaf rust control; format: in vivo; settings: foliar application to wheat (Triticum aestivum cv. Winterhawk), evaluated 10 days later
# Phakopsora pachyrhizi = assay: Foliar protection test for Asian soybean rust control; format: in vivo; settings: foliar application to soybean (Glycine max AG4832), percent disease area evaluated 14 days later
# [8] = ≥90% inhibition, 48 hours vs 2% DMSO control, read-out: Compound Concentration (ppm) sufficient for ≥90% inhibition of growth, Bc
# [9] = ≥90% inhibition, 48 hours vs 2% DMSO control, read-out: Compound Concentration (ppm) sufficient for ≥90% inhibition of growth, Cg
# [10] = ≥90% inhibition, 48 hours vs 2% DMSO control, read-out: Compound Concentration (ppm) sufficient for ≥90% inhibition of growth, Dm
# [11] = ≥90% inhibition, 48 hours vs 2% DMSO control, read-out: Compound Concentration (ppm) sufficient for ≥90% inhibition of growth, Fm
# [12] = ≥90% inhibition, 48 hours vs 2% DMSO control, read-out: Compound Concentration (ppm) sufficient for ≥90% inhibition of growth, Fv
# [13] = ≥90% inhibition, 48 hours vs 2% DMSO control, read-out: Compound Concentration (ppm) sufficient for ≥90% inhibition of growth, Pc
# [14] = ≥90% inhibition, 48 hours vs 2% DMSO control, read-out: Compound Concentration (ppm) sufficient for ≥90% inhibition of growth, Rs
# [15] = ≥90% inhibition, 48 hours vs 2% DMSO control, read-out: Compound Concentration (ppm) sufficient for ≥90% inhibition of growth, St
SMILES,IC90 (Botrtyis cinerea (Bc); [8]) [µg/mL],"IC90 [1, 9] [µg/mL]",IC90 (Diplodia maydis (Dm); [10]) [µg/mL],"IC90 [2, 11] [µg/mL]","IC90 [3, 12] [µg/mL]","IC90 [4, 13] [µg/mL]",IC90 (Rhizoctonia solani (Rs); [14]) [µg/mL],IC90 (Septoria tritici (St); [15]) [µg/mL],IC75 [5] [µg/mL],other results
COc1ccccc1[C@H](Cn1c(=O)n(C(C)(C)C(=O)NC(C)C)c(=O)c2c(C)c(-c3ncco3)sc21)OC(C)C [Compound I-001],≥ 0.4,≥ 2,2,0.08,0.4,> 50,50,> 10,1.2,–
COc1ccccc1[C@H](Cn1c(=O)n(C(C)(C)C(=O)N2CCCCC2)c(=O)c2c(C)c(-c3ncco3)sc21)OC1CCOCC1 [Compound I-004],0.4,2,2,0.08,2,> 50,10,> 10,3.7,–
COc1ccccc1[C@H](Cn1c(=O)n(C(C)(C)C(=O)N2CCCC2)c(=O)c2c(C)c(-c3ncco3)sc21)OC1CCOCC1 [Compound I-005],2,2,2,0.08,2,> 50,0.4,> 10,0.4,–
CCOC(=O)c1sc2c(c1C)c(=O)n(C(C)(C)C(=O)N1CCCCC1)c(=O)n2C[C@H](OC(C)C)c1ccccc1OC [Compound I-006],0.4,0.4,0.4,0.08,0.4,> 50,0.4,≥ 2,1.2,–
CCOC(=O)c1sc2c(c1C)c(=O)n(C(C)(C)C(=O)N1CCCC1)c(=O)n2C[C@H](OC(C)C)c1ccccc1OC [Compound I-007],0.4,0.4,0.4,0.08,0.4,> 50,0.08,≥ 2,0.4,–
CCOC(=O)c1sc2c(c1C)c(=O)n(C(C)(C)C(=O)NC(C)C)c(=O)n2C[C@H](OC1CCOCC1)c1ccccc1OC [Compound I-008],0.4,2,2,0.08,2,> 50,10,> 10,3.7,–
CCOC(=O)c1sc2c(c1C)c(=O)n(C(C)(C)C(=O)NC(C)C)c(=O)n2C[C@H](OC(C)C)c1ccccc1OC [Compound I-009],0.4,2,0.4,0.08,0.4,> 50,10,> 50,3.7,–
CCNC(=O)C(C)(C)n1c(=O)c2c(C)c(-c3ncco3)sc2n(C[C@H](O[C@H]2CC[C@@H](O)CC2)c2ccccc2OC)c1=O [Compound I-010],0.4,50,≥ 2,0.08,2,> 50,50,> 50,0.4,–
COc1ccccc1[C@H](Cn1c(=O)n(C(C)(C)C(=O)NC(C)C)c(=O)c2c(C)c(-c3ncco3)sc21)OC1CCOCC1 [Compound I-011],0.4,2,2,0.08,2,> 50,10,50,1.2,–
COc1ccccc1[C@H](Cn1c(=O)n(C(C)(C)C(=O)NC(C)C)c(=O)c2c(C)c(-c3ncco3)sc21)O[C@H]1CC[C@@H](O)CC1 [Compound I-012],0.4,10,2,0.08,2,> 50,50,≥ 10,0.14,–
"COc1ccc(F)cc1[C@H](Cn1c(=O)n(C(C)(C)C(=O)NC(C)C)c(=O)c2c(C)c(-n3nccn3)sc21)OC(C)=O [Compound I-323, (R)-1-(5-fluoro-2-methoxyphenyl)-2-(3-(1-(isopropylamino)-2-methyl-1-oxopropan-2-yl)-5-methyl-2,4-dioxo-6-(2H-1,2,3-triazol-2-yl)-3,4-dihydrothieno[2,3-d]pyrimidin-1(2H)-yl)ethyl acetate]",–,–,–,–,–,–,–,–,–,"IC90 (Botrtyis cinerea (Bc); ≥90% growth inhibition, 48 hours, vs 2% DMSO control, read-out: Compound Concentration (ppm) sufficient for ≥90% inhibition of Bc): 0.4 µg/mL; IC90 ([1]; ≥90% growth inhibition, 48 hours, vs 2% DMSO control, read-out: Compound Concentration (ppm) sufficient for ≥90% inhibition of Cg): 0.4 µg/mL; IC90 (Diplodia maydis (Dm); ≥90% growth inhibition, 48 hours, vs 2% DMSO control, read-out: Compound Concentration (ppm) sufficient for ≥90% inhibition of Dm): ≥ 0.4 µg/mL; IC90 ([2]; ≥90% growth inhibition, 48 hours, vs 2% DMSO control, read-out: Compound Concentration (ppm) sufficient for ≥90% inhibition of Fm): 0.08 µg/mL; IC90 ([3]; ≥90% growth inhibition, 48 hours, vs 2% DMSO control, read-out: Compound Concentration (ppm) sufficient for ≥90% inhibition of Fv): 0.08 µg/mL; IC90 ([4]; ≥90% growth inhibition, 48 hours, vs 2% DMSO control, read-out: Compound Concentration (ppm) sufficient for ≥90% inhibition of Pc): > 50 µg/mL; IC90 (Rhizoctonia solani (Rs); ≥90% growth inhibition, 48 hours, vs 2% DMSO control, read-out: Compound Concentration (ppm) sufficient for ≥90% inhibition of Rs): 0.08 µg/mL; IC90 (Septoria tritici (St); ≥90% growth inhibition, 48 hours, vs 2% DMSO control, read-out: Compound Concentration (ppm) sufficient for ≥90% inhibition of St): > 50 µg/mL; Barley Powdery Mildew Control at a compound concentration of 10 ppm or lower [6]: AA (≥85% control of barley powdery mildew); Cucumber Powdery Mildew Control at a compound concentration of 10 ppm or lower (Sphaerotheca fuliginea): AA (≥85% control of cucumber powdery mildew); Septoria Leaf Blotch Control at a compound concentration of 25 ppm or lower [7]: AA (≥85% control of wheat septoria leaf blotch); Wheat Fusarium Head Blight Control at a compound concentration of 25 ppm or lower (Fusarium graminearum): C (from 25 to 49% control of wheat fusarium head blight); Wheat Leaf Rust Control at a compound concentration of 10 ppm or lower (Puccinia triticina): AA (≥85% control of wheat leaf rust); Asian Soybean Rust Control at a compound concentration of 25 ppm or lower (Phakopsora pachyrhizi): AA (≥85% control of Asian soybean rust)"
